35 molecules from a melting point compilation (Tetko et al.; mined from patent text by program, amines drawn as free bases though some values may be those of a salt) can be followed below.

By melting point is commonly meant the temperature of the solid-liquid transition. `COc1ccc(-n2nc(-c3ccc(OC)c(CCC(=O)O)c3OC)cc2-c2ccc(Cl)cc2)cc1` came in with a melting point of 100 to 101 °C.

For `O=c1cc(OCc2ccccc2Cl)ccn1Cc1ccccc1`, the melting point is 125 °C.

As to `COc1ccc(/C=C/S(=O)(=O)CS(=O)(=O)/C=C/c2ccc(OC)c(O)c2)cc1O`, the melting point fell in the range of 148 to 150 °C.

As for `O=c1[nH][nH]c(=O)c2c(O)c3c(C(F)(F)F)cccc3nc12`, the melting point fell in the range of 180 to 182 °C.

The molecule `CC(C)(C)CN1C(=O)C(=O)N(c2ccc(F)cc2)C1=S` had a melting point of 165 to 166 °C.

Regarding `COc1ccc2c(c1)CCC1C2CCC2(C)C(=O)CC(C(C)C)C12` (stereo not given), the melting point fell in the range of 104 to 108 °C.

`Cc1cc2c(cc1-c1ccc(O)c(C=O)c1)C(C)(C)CCC2(C)C`: the melting point is 138 to 139 °C.

`CCCCCCCCC#CCCCCCCCCCCCC(=O)O` yielded a melting point of 58 °C.

In the case of `CCOC(=O)c1cc(-n2c(=O)[nH]c3c(c2=O)CCC3)ccc1[N+](=O)[O-]`, the melting point was in the range of 205 to 208 °C.

Molecule `Cc1sc2c(c1C)C(c1ccc(Cl)cc1)=NC(CC(=O)N1CCOCC1)c1nnc(C)n1-2` (stereo not given) came in with a melting point of 252 to 254 °C.

The molecule `Cc1nn(-c2ccc(F)cc2)cc1C(=O)Nc1ccc(CC(C)C)c(C#N)c1` returned a melting point of 178 to 179 °C.

Consider `COc1nccc2c1ccn2-c1ccc(C(F)(F)F)cc1Cl`, for which the melting point is 112 to 115 °C.

`CCOC(=O)c1cn(NCC=O)c2c(F)c(F)c(F)cc2c1=O` registered a melting point of 185 °C.

For `CCCCCCCCSC(CCCCC)CCn1ccnc1` (stereo not given), the melting point fell in the range of 105 to 108 °C.

`CC(=O)c1c(C)nc(C)n1-c1cc(C)c2[nH]c(=O)ccc2c1` registered a melting point of 240 to 242 °C.

For `COc1cccn2c(=O)c3c(nc12)C(=Cc1ccccc1)CC3`, the melting point was 212 to 214 °C.

In the case of `COCC1OC(OC(C)=O)C(OC(C)=O)C(OC(C)=O)C1OC(C)=O` (stereo not given), the melting point is 102 to 103 °C.

`COc1cc(NC(=O)c2ccccc2Cl)ccc1C(=O)N1CCCC(OCCS(=O)(=O)c2ncc[nH]2)c2cc(Cl)ccc21` (stereo not given) had a melting point of 247 to 248 °C.

Regarding `CN1Cc2ccc(OCCCCN3CCN(c4cccc5ccccc45)CC3)nc2NC1=O`, the melting point lay within 180 to 182 °C.

Take `Cc1ccc(C)c(NC(=O)CCl)c1C`: the melting point lay in the range of 145 to 146 °C.

Molecule `N=C(Nc1ccccc1-c1cccc(F)c1)N1CCC(O)CC1` had a melting point of 147 to 148 °C.

In turn, `CN1CCC(C2=C(C#N)C(c3ccccc3Cl)c3c[nH]nc3N2)CC1` (stereo not given) gave a melting point of over 270 °C.

Regarding `CCOC(=O)C(=NOC1CCCCO1)c1csc(NC(c2ccccc2)(c2ccccc2)c2ccccc2)n1` (stereo not given), the melting point was found to be 184 °C.

For `CN(Cc1ccccc1)C1(CNC(=O)c2ccc(Cl)c(Cl)c2)CCCCC1`, the melting point lay in the range of 139 to 145 °C.

`CCCCc1ccc(NC=C(C#N)C(=O)OCC)nc1` displayed a melting point of 69 to 73 °C.

`COc1ccc(N2CCN(c3c(C)c(C)c4c(c3C)C(N3CCCC3)C(C)(C)O4)CC2)cc1OC` (stereo not given): the melting point is 128 to 130 °C.

For `C=CCOc1nc(SC)nc(N2CCc3ccccc3CC2)c1C#N`, the melting point lay within 103 to 105 °C.

`COc1nc2ncccc2c2nc(S(=O)(=O)Cl)nn12` yielded a melting point of 172 to 174 °C.

Regarding `CCOC(=O)c1c(OCC)nsc1NC(=O)N(C)C`, the melting point is 164 to 165 °C.

For the molecule `NS(=O)(=O)c1ccc(S(=O)(=O)N2CCC(=O)CC2)cc1`, the melting point is 194 to 195 °C.

The molecule `CC(=O)Oc1cc2c(c3ccccc13)Nc1ccc(C)cc1S2` displayed a melting point of 193 to 195 °C.

`COc1cc(Nc2c(C#N)cnc3ccsc23)c(Cl)cc1Cl`: the melting point was in the range of 208 to 210 °C.

`CC(C)(C)OC(=O)N1CC(=O)Nc2cccc(F)c21` gave a melting point of 155 to 156 °C.

In the case of `OCc1ccc(C2=NOC(c3cc(Cl)cc(Cl)c3)(C(F)(F)F)C2)cc1` (stereo not given), the melting point was in the range of 108 to 110 °C.

`CCCc1cc(C)c2oc(Cc3ccc(OC)cc3)c(C)c2c1O` displayed a melting point of 102 to 104 °C.
